{"source": "patent US3948886A", "about": "“6-Substituted purine 3',5'-cyclic nucleotides” (ICN Pharmaceuticals, Inc., priority 1973, dated 1976)", "key": {"[1]": {"test_system": "L-929 cells", "assay": "Interferon potentiation in vitro with L-929 cells", "type": "cell-based"}, "[2]": {"test_system": "cyclic AMP-dependent protein kinase", "assay": "Activation of bovine brain cyclic AMP-dependent protein kinase", "type": "biochemical", "conditions": "pH 6, relative to cyclic AMP", "experimental": "Cyclic AMP-dependent protein kinase was purified to the stage of DEAE cellulose chromatography from bovine brain using the procedure of Miyamoto et al., J. Biol. Chem. 244, 6395 (1969). Protein kinase activity was assayed by measuring the incorporation of ^32 P-phosphate into histone from γ-^32 P labeled ATP. The incubation mixture contained (amounts in μmoles): sodium glycerol phosphate buffer, pH 6, 10; γ-^32 P-ATP, ~2 × 10^6 cpm, 0.001; magnesium acetate, 2; sodium fluoride, 2; EDTA, 0.06; histone, 40 - 400 μg; cAMP, cGMP or analog as indicated; purified protein kinase, 5 - 25 μg in a final volume of 0.2 ml. Activation constants (Ka) were determined according to the procedure of Muneyama et al., supra. The Ka values relative to cyclic AMP (Ka') are reported in Table IV and compared to Ka' for compound 6."}, "[3]": {"test_system": "Herpes virus Type 2", "assay": "Antiviral activity, virus rating (VR) method, Herpes Type 2", "type": "cell-based", "conditions": "virus rating (VR) method of Sidwell et al.", "from_the_text": "(§1) Tested according to the virus rating (VR) method of Sidwell et al., Proc. Soc."}, "[4]": {"test_system": "cyclic AMP phosphodiesterase", "assay": "Resistance to phosphodiesterase (PDE) degradation", "type": "biochemical", "conditions": "rabbit kidney PDE, pH 7.5, 37°C"}, "[5]": {"test_system": "Herpes virus Type 1", "assay": "Antiviral activity, virus rating (VR) method, Herpes Type 1", "type": "cell-based", "conditions": "virus rating (VR) method of Sidwell et al.", "from_the_text": "as §1"}, "[6]": {"molecular_target": "adenyl cyclase", "assay": "Adenyl cyclase inhibition (guinea pig lung particulate fraction)", "type": "biochemical", "conditions": "guinea pig lung particulate enzyme fraction, 1.2 mM ATP, pH 7.8, 15 min at 37°; read-out: I50 (concentration required for 50% enzyme inhibition)", "experimental": "Lunt alveolar tissue was obtained from normal guinea pigs. The tissue was minced and a Duall tissue grinder was used to prepare a 20% homogenate in chilled buffer containing 1 mM MgCl 2 and 2 mM glycylglycine, pH 7.5 (F. Murad et al., J. Biol. Chem. 237: 1233, 1962). The homogenate was strained through four layers of gauze and centrifuged at 1000xg for 15 min at 4°. The pellet was resuspended in the original volume of buffer and recentrifuged. The pellet was again resuspended in buffer and 0.5 - 1.0 ml aliquots were sealed in ampoules and stored under liquid nitrogen for future assay of adenylate cyclase activity. […] Protein was determined by the method of Lowry et al., J. Biol. Chem. 193: 265, 1951, with crystalline bovine serum albumin as standard.\nAdenylate cyclase activity was assayed in duplicate by a modification of previously published methods (G. Krishna et al., J. Pharmacol. Exp. Therap. 163: 379, 1968; G. S. Levey and S. E. Epstein, Circ. Res. 24: 151, 1969). The total assay volume was 0.59 ml and contained 1.8 mM MgCl2, 0.8 mM glycylglycine, 32 mM Tris (pH 7.8), 1.2 mM ATP, 3-5×10^6 cpm [α-^32 P] ATP, and particulate enzyme fraction (100-150 μg. lung protein). Concentrated solutions of compounds to be tested were prepared fresh daily by dissolution in water, ethanol, or dimethyl sulfoxide; 5-10 μl of the solution was added to the incubation mixture to give the desired final concentration. Control assays (without compound) contained solvent alone.\nThe incubation mixture was reacted for 15 min at 37° in a shaker, and then boiled for 3 min to inactivate the cyclase. One hundred μl of a solution containing 4 μmoles ATP, 1.25 μmoles cyclic AMP, and 0.15μCi [^3 H] cyclic AMP was added to the reaction mixture. […] After centrifugation, 1 ml of supernatant containing [^32 P] cyclic AMP and [^3 H] cyclic AMP was mixed with 15 ml of scintillator (100 g naphthalene, 14 g PPO, and 0.1 g dimethyl POPOP per 2 l dioxane) and counted. […]"}, "[7]": {"test_system": "Rhino viruses", "assay": "Antiviral activity, virus rating (VR) method, Rhino viruses", "type": "cell-based", "conditions": "virus rating (VR) method of Sidwell et al.", "from_the_text": "as §1"}, "[8]": {"test_system": "6-methylthio-purine riboside-resistant Ehrlich carcinomas", "assay": "Growth inhibition of surgically implanted Ehrlich carcinomas in mice", "type": "in vivo", "conditions": "intraperitoneally, 83 μmoles/Kg"}}, "data": [{"compound": "CSc1ncnc2c1ncn2[C@@H]1O[C@@H]2COP(=O)(O)O[C@H]2[C@H]1O", "note": "[Compound 7a, 6-Methylthio-9-β-D-ribofuranosylpurine 3', 5'-cyclic phosphate]", "values": [{"measurement": "interferon potentiation", "setting": "[1]", "result": "marked interferon potentiation"}, {"measurement": "Ka' (= Ka, cyclic AMP/Ka analog)", "setting": "[2]", "result": 1.45}, {"measurement": "activity against Herpes virus Type 2", "setting": "[3]", "result": "exhibited activity"}, {"measurement": "rate of analog hydrolysis relative to cyclic AMP (α)", "setting": "[4]", "result": 0.41}, {"measurement": "activity against Herpes virus Type 1", "setting": "[5]", "result": "exhibited activity"}, {"measurement": "IC50", "setting": "[6]", "result": 340, "unit": "µM"}]}, {"compound": "CCSc1ncnc2c1ncn2[C@@H]1O[C@@H]2COP(=O)(O)O[C@H]2[C@H]1O", "note": "[Compound 7b, 6-Ethylthio-9-β-D-ribofuranosylpurine 3', 5'-cyclic phosphate]", "values": [{"measurement": "interferon potentiation", "setting": "[1]", "result": "marked interferon potentiation"}, {"measurement": "activity against Rhino viruses", "setting": "[7]", "result": "exhibited activity"}, {"measurement": "Ka' (= Ka, cyclic AMP/Ka analog)", "setting": "[2]", "result": 2.0}, {"measurement": "rate of analog hydrolysis relative to cyclic AMP (α)", "setting": "[4]", "result": 0.57}, {"measurement": "activity against Herpes virus Type 1", "setting": "[5]", "result": "exhibited activity"}, {"measurement": "IC50", "setting": "[6]", "result": 1000, "unit": "µM"}]}, {"compound": "O=P1(O)OC[C@H]2O[C@@H](n3cnc4c(=S)[nH]cnc43)[C@H](O)[C@@H]2O1", "note": "[Compound 6, 9-β-D-Ribofuranosylpurin-6-thione 3', 5'-cyclic phosphate, reference compound]", "values": [{"measurement": "interferon potentiation", "setting": "[1]", "result": "did not"}, {"measurement": "Ka' (= Ka, cyclic AMP/Ka analog)", "setting": "[2]", "result": 0.56}, {"measurement": "rate of analog hydrolysis relative to cyclic AMP (α)", "setting": "[4]", "result": 1.06}]}, {"compound": "O=P1(O)OC[C@H]2O[C@@H](n3cnc4c(SCc5ccccc5)ncnc43)[C@H](O)[C@@H]2O1", "note": "[Compound 7c, 6-Benzylthio-9-β-D-ribofuranosylpurine 3', 5'-cyclic phosphate]", "values": [{"measurement": "Ka' (= Ka, cyclic AMP/Ka analog)", "setting": "[2]", "result": 1.25}, {"measurement": "activity against Herpes virus Type 2", "setting": "[3]", "result": "exhibited activity"}, {"measurement": "rate of analog hydrolysis relative to cyclic AMP (α)", "setting": "[4]", "result": 0.54}, {"measurement": "inhibition of growth of Ehrlich carcinomas", "setting": "[8]", "result": "inhibited growth"}, {"measurement": "IC50", "setting": "[6]", "result": 7000, "unit": "µM"}]}]}
